# From patent publication US9864847B2, “Method for predicting the solubility of a molecule in a polymer at a given temperature” (priority 2014, dated 2018)
# What was measured:
# [1] = indomethacin / PVP-K30 at 25° C.; cited from earlier work
# [2] = Difference in specific enthalpy and specific entropy (solid solution minus unmixed components) from DSC specific heats; type: physicochemical; conditions: indomethacin 2.5% by weight with PVP-K30
# Source text: In practice, there is a lower limit to the temperature at which thermal analysis instruments such as DSC can provide accurate experimental data. As a result, it is not possible to experimentally obtain the necessary specific heats over all temperatures down to absolute zero, but instead they only be evaluated to a minimum temperature, denoted by Tmin. The experimental data can be used to construct a temperature-dependent difference in specific heats, denoted as ΔCP, which is defined as the difference between the specific heat of the solid solution minus the specific heat of the unmixed components in the same ratio, over the temperature range of Tmin to any higher temperature T for which experimental specific heat data is available. This is given by Δ[…]) (29) Because of the thermal analysis instrument limitations, ΔCP provides no data between absolute zero and Tmin, so it is necessary to estimate the values of specific heat differences at temperatures below Tmin. One way to do this is to extrapolate the plot of the experimentally obtained ΔCP vs. the temperature from Tmin to absolute zero. This can be done as follows. • Obtain the experimental values for ΔCP from Tmin up to at least temperature Tat which the solubility of the drug in the polymer is to be evaluated. • Construct an approximating function Δc that is a function of the temperature, which will be used to estimate ΔCP at temperatures lower than Tmin. • Fit the function Δc to the experimental values of ΔCP from Tmin to T using any appropriate method, such as linear or nonlinear regression. • Using the fitted equation for Δc, calculate values of Δc over temperatures from absolute zero to Tmin. These values will be used as substitutes for experimental specific heat difference for temperatures below Tmin. There is no theoretical model or equation that dictates the mathematical form of Δc, and more than one functional form can be chosen. […] One preferred form would be a sum of a constant plus exponentials, such as Δ[…]) (30) where a0, a1 . . . a8 are temperature independent parameters with values that can be determined or fit by nonlinear regression or other methods so Eq. (30) will be a good approximation to the experimental ΔCP vs. temperature data over the experimental temperature range. […] (The value for a4 was not determined because the coefficient multiplying the exponential a3 was zero. […] Using the values Δc calculated from Eq. (34) for temperatures from 0 to […], and the experimental values of ΔCP, values of Δ[…] calculated from Eq. (31) and (32), respectively, for various temperatures. For this combination of indomethacin and PVP-K30, the calculated specific enthalpy values at -10° C. and 25° C.
# [3] = 25° C.
# Method: The drug indomethacin and the polymer PVP-K30 were taken in various ratios, corresponding to weight percentages of indomethacin in the mixture of 2.5%, 10%, 15%, and 20%. DSC was performed on the pure indomethacin and pure PVP-K30, and the specific heat for each was obtained as a function of the temperature over the range of 220K to 310K. The DSC instrument provided reliable data as low as 220K, which was taken as Tmin. Solid solutions were formed by mixing the drug and polymer in a mortar and pestle, allowing them to stand at 130° C. (403 K) for 5 days, then allowing them to cool to room temperature. DSC was also performed to determine the specific heat of the solid solutions from 220K to 300K. All DSC was performed using a pinhole in the lid and was thus considered open pan, so the specific heats were considered to be obtained at constant pressure. All heating and cooling rates were 5° C. per minute. […]
# The entire procedure was repeated for each indomethacin-PVP combinations (2.5% m 10%, 15% and 20% indomethacin by weight), including obtaining the adjustable parameters a0, a1 . . . a8 for each indomethacin/PVP-K30 combination. […] The values of ΔgSS at 25° C. were calculated for each drug-polymer ratio from Eq. (33), and subsequently used to calculate values of ΔgSS/f0.
smiles,measurement,setting,value
COc1ccc2c(c1)c(CC(=O)O)c(C)n2C(=O)c1ccc(Cl)cc1 [indomethacin],interaction parameter χ,[1],0.747
same,Δhheat (calculated specific enthalpy difference),[2]; 25° C. (298 K),18.347 J/g
same,Δsheat (calculated specific entropy difference),[2]; 25° C. (298 K),0.0787 J/K/g
same,Δhheat (calculated specific enthalpy difference),[2]; −10° C. (263 K),9.66 J/g
same,Δsheat (calculated specific entropy difference),[2]; −10° C. (263 K),0.0479 J/K/g
same,maximum stable weight fraction of indomethacin in PVP-K30 solid solution,[3],15 % by weight
same,indomethacin weight fraction at minimum of ΔgSS/f0,"[3]; PVP-K30, FIG. 4",approximately 0.15
